According to patent publication US20200157135A1, “SIDE-CHAIN MODIFIED ERGOSTEROL AND STIGMASTEROL DERIVATIVES AS LIVER X RECEPTOR MODULATORS” (Ospedale San Raffaele srl, priority 2017, published 2020):

Experiments:
hLXRβ = target: T1, hLXRβ (Homo sapiens, UniProt P55055); test: luciferase assay with GAL-4 chimeric hLXRβ receptor in human embryonic kidney 293 cells; type: cell-based
T1 sequence (P55055 222-460 limits assumed): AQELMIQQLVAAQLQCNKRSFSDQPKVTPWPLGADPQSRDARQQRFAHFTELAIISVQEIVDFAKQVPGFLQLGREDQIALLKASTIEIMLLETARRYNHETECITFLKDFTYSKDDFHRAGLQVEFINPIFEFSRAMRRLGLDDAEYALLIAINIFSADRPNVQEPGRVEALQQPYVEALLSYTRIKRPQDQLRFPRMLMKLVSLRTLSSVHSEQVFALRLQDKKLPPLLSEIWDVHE
Method: (§1) All the synthesized compounds were first tested for their ability to activate LXRs by using luciferase assays with GAL-4 chimeric receptors. These were performed by co-transfecting plasmids encoding hLXRα- and β-binding domains fused to GAL-4, with the respective responsive element conjugated with the luciferase reporter gene into the human embryonic kidney 293 cells.
(§2) Cell Culture and Co-transfection Assays. Human embryonic Kidney 293 cells (American Type Culture Collection) were cultured in Dulbecco's Modified Eagle's medium containing 10% of fetal bovine serum at 37° C. in humidified atmosphere of 5% CO2. HEK293 cells (4×10^4 cells per well) were transiently transfected in 48 well plate with the reporter plasmids pMH100X4-TK-luc (100 ng/well), Renilla (22 ng/well) together with 100 ng/well of pCMX-Gal4-RXR, pCMX-Gal4-PPAR-γ, pCMX-Gal4-PXR, pFA-CMV-FXR pCMX-Gal4-LXR-α or pCMX-Gal4-LXR-β plasmids using X-tremeGENE 9 DNA Transfection Reagent (Roche). Six hours after transfection, the cells were treated with the appropriate compound for 24 hours. Luciferase activities were analyzed by luciferase Dual Reporter Assay Systems (Promega) according to the manufacturer's protocol. GAL4-LXRs, GAL4-PPAR-γ, GAL4-RXR and TK-MHC100-luc plasmids were described in Villablanca et al.49 GAL4-PXR was a kind gift of Dr. Enrique Sainz (The Scripps Research Institute, La Jolla, USA). GAL4-FXR was a kind gift of Dr. Daniel Merk (Goethe-University Frankfurt am Main). The results obtained by luciferase assays and reported in Table 1 are from three to five independent experiments.
(§3) Statistical analysis. Data are expressed as mean±SEM and were analyzed for significance by ANOVA with Dunnet's multiple comparison tests. The analysis was performed with Prism software. Data in Table 1 are expressed as EC50±SD. In particular, the standard deviations were obtained by calculating the mean of the EC50 of each experiment (three to five independent experiments). The efficacy (%) of the compounds was calculated as the percentage of the compound effect, in terms of LXRα or β activation, versus 8 μM of 22R—HC±SD. The analyses were performed with Prism software.

FASN = test: qPCR of FASN expression in PMA-differentiated U937 cells; type: cell-based, human; settings: U937 differentiated with PMA 72 h; 10 μM, 6 hours
Method: (§4) U937 cells differentiated with PMA for 72 hours were treated with T0901317 (10 μM), 22R—HC (3) or with the tested compound (10 μM). […] (n=3/group). *p<0.05, **p<0.01, ***p<0.001.
LXR agonists induce the expression of target genes, which are involved in cholesterol homeostasis, particularly in the reverse cholesterol transport pathway.43 Indeed, LXR agonists induce the expression of ABCA1 both in macrophages and in many tissues of the periphery such as the intestine.44 Moreover, ABCA1 regulates cholesterol efflux to APOAI acceptors.45 In the liver, LXR activation promotes the biosynthesis of fatty acids, a process also termed as de novo lipogenesis by inducing the expression of the master regulator of hepatic lipogenesis sterol-regulatory element-binding protein 1C (SREBP-1c), as well as several downstream genes in the SREBP-1c pathway, including steroyl CoA desaturase 1 (SCD1) and fatty acid synthase (FASN).43 Therefore, it was investigated, by quantitative PCR (qPCR), the expression of ABCA1, SREBP1c, FASN, and SCD1, by using RNA from monocytic U937 cells (FIG. 3) and from hepatic HepG2 cells (FIG. 4) stimulated with our compounds, the non-steroidal agonist T0901317 or the endogenous ligand 22R—HC (3) as positive controls. […] Then, the induction of genes involved in the lipogenesis using the hepatic cell line HepG2. 43,22 was evaluated. […]
Quantitative Real-Time-PCR. […]

hLXRα = target: T2, hLXRα (Homo sapiens, UniProt Q13133); test: luciferase assay with GAL-4 chimeric hLXRα receptor in human embryonic kidney 293 cells; type: cell-based
T2 sequence (Q13133 209-447 limits assumed): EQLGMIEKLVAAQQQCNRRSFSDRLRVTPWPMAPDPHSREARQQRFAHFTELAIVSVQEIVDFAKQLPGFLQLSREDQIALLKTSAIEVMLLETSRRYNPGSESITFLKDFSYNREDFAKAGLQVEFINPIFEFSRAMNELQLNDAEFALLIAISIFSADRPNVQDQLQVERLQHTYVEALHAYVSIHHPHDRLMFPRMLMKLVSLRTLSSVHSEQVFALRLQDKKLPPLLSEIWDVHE
Method: as §1, §2, §3

SCD1 = test: qPCR of SCD1 expression in PMA-differentiated U937 cells; type: cell-based, human; settings: U937 differentiated with PMA 72 h; 10 μM, 6 hours
Method: as §4
LXR agonists induce the expression of target genes, which are involved in cholesterol homeostasis, particularly in the reverse cholesterol transport pathway.43 Indeed, LXR agonists induce the expression of ABCA1 both in macrophages and in many tissues of the periphery such as the intestine.44 Moreover, ABCA1 regulates cholesterol efflux to APOAI acceptors.45 In the liver, LXR activation promotes the biosynthesis of fatty acids, a process also termed as de novo lipogenesis by inducing the expression of the master regulator of hepatic lipogenesis sterol-regulatory element-binding protein 1C (SREBP-1c), as well as several downstream genes in the SREBP-1c pathway, including steroyl CoA desaturase 1 (SCD1) and fatty acid synthase (FASN).43 Therefore, it was investigated, by quantitative PCR (qPCR), the expression of ABCA1, SREBP1c, FASN, and SCD1, by using RNA from monocytic U937 cells (FIG. 3) and from hepatic HepG2 cells (FIG. 4) stimulated with our compounds, the non-steroidal agonist T0901317 or the endogenous ligand 22R—HC (3) as positive controls. […] Then, the induction of genes involved in the lipogenesis using the hepatic cell line HepG2. 43,22 was evaluated. […] Over the time, indeed, substantial efforts have been dedicated to the identification of LXR ligands able to turning on ABC transporter genes, without affecting lipogenic genes levels. This task is still one of the major challenge to the discovery of a clinically useful LXR modulator for atherosclerosis.
Quantitative Real-Time-PCR. U937 cell line was differentiated in foam macrophages with phorbol 12-myristate 13-acetate (PMA) 10 ng/ml (Sigma) for 72 hours at 37° C. in […] at the concentration of 3×10^6 cells in 10 ml RPMI 10% FBS. At day 3 nuclear receptor ligands were added for 6 hours. HepG2 cells were treated with the ligands as described by Quinet et al.22 Total RNA was purified by TRIZOL (Invitrogen, Carlsbad, Calif., USA). Reverse transcription was performed incubating 2 μg of total RNA 1 hour at 42° C. with MLV-reverse transcriptase (Promega). Quantitative PCR was performed using Sybr Green Master Mix (Applied Biosystems) and real-time PCR (Viia 7 Real Time PCR System, Applied Biosystems). All PCR reactions were done in triplicate. The comparative Ct method was used to quantify transcripts that were normalized for human GAPDH. the following primer pairs were used: […]

Row | melting point | SMILES | EC50 (hLXRβ; GAL4-hLXRβ luciferase, HEK293, dose-response 32-1 μM, mean of three-five independent experiments, read-out: LXRβ EC50 (μM) ± SD) | Emax (hLXRβ; HEK293, 24 h, read-out: LXRβ Efficacy (%) ± SD, % of compound effect versus 8 μM of 22R-HC) | FASN mRNA levels (FASN) | EC50 (hLXRα; GAL4-hLXRα luciferase, HEK293, dose-response 32-1 μM, mean of three-five independent experiments, read-out: LXRα EC50 (μM) ± SD) | Emax (hLXRα; HEK293, 24 h, read-out: LXRα Efficacy (%) ± SD) | SCD1 expression (SCD1)
1 | 117.3 to 121 °C | CC(C)[C@@H](C)C[C@@H](O)[C@@H](C)[C@H]1CC[C@H]2C3=CC=C4C[C@@H](O)CC[C@]4(C)[C@H]3CC[C@]12C | – | – | – | – | – | –
2 | – | CC(C)CC[C@@H](O)[C@@H](C)[C@H]1CC[C@H]2[C@@H]3CC=C4C[C@@H](O)CC[C@]4(C)[C@H]3CC[C@]12C [22R-HC (3), 22(R)-hydroxycholesterol, reference compound] | 4.75 ± 0.12 µM | 100% | did not induce up-regulation of FASN and SCD1 transcripts | 6.71 ± 0.71 µM | 100% | did not induce up-regulation of FASN and SCD1 transcripts
